Data set [1] concerns CD8+ T cells. Nature of the data set: Dose titration of CGS-21680 on T cell proliferation (CFSE). The data set is classed as cell-based, human. The note with it: CFSE-labeled CD8+ T cells, two donors. The method, then:
FIG. 12A-E. Screen for Resistance to an Immunosuppressive Signal in Primary T Cells Using SLICE, Related to FIG. 6. Section A: a dose titration of adenosine receptor agonist CGS-21680 for the optimal effects on T cell proliferation inhibition identified 20 μM as sufficiently suppressive. Shown are representative CFSE profiles for varying concentrations of CGS-21680, as labeled at the top of each panel. Data is for CFSE-labeled CD8^+ T cells from two human donors. Section C: Comparison of the overlapping top 25 hits for the two screen conditions (CGS-21680 and vehicle). We noted that while many hits from the vehicle screen also boosted proliferation in the presence of the immunosuppressive adenosine agonist (trending along diagonal), ADORA2A and FAM105A sgRNAs were enriched selectively in the setting of the adenosine agonist. ADORA2A and FAM105A were the only hits in the top 0.1% by LFC in the CGS-21680 treated condition and also in the top 0.1% by LFC difference between the CGS-21680 and the vehicle GW screen conditions. Section D: Paralogs FAM105A and OTULIN (FAM105B) are 40% homologous and are encoded at neighboring sites on chromosome 5. […] A non-synonymous single nucleotide polymorphism (SNP) in FAM105A has been linked to allergic disease by genome wide association studies (Ferreira et al., 2017). […]

Data set [2] concerns primary human T cells. As to the kind of experiment: Genome-wide SLICE pooled CRISPR screen: CFSE-sorted proliferation after TCR stimulation. The data set is classed as cell-based. The note with it: log2 fold-change of sgRNA, dividing over non-dividing cells; positive hits from GW screen. The source says: To take full advantage of this platform, we scaled-up from the targeted pilot screen to genome-wide (GW) scale (Doench et al., 2016), transducing a library of 77,441 sgRNAs (19,114 genes) into T cells from two healthy donors. After confirming successful transduction of these primary human T cells (FIG. 8,A-B), the cells were re-stimulated and then FACS sorted into non-proliferating and highly-proliferating populations based on CFSE levels (FIG. 8C and Experimental Procedures). MAGeCK software (Li et al., 2014) was used to systematically identify genes that are positively or negatively selected in the proliferating population of T cells. Top positive and negative regulators from the pilot screen were confirmed in both biological replicates of the GW screen along with numerous other hits (FIG. 2A, B). To hone the list of top candidates, we performed an independent secondary screen in cells from two additional human blood donors. The results were well correlated between the primary and secondary screens (FIG. 2C). Furthermore, integrated analysis of the two independent screens performed on a total of four human blood donors provided improved power for target discovery, particularly for negative regulators of T cell proliferation (FIG. 8D). To confirm that hits are in fact dependent on TCR stimulation, we performed GW screens with increasing levels of TCR stimulation. […] The observed dose-response confirmed that the majority of the screen hits are dependent on the TCR stimulus and serve to tune resulting proliferative responses. Taken together these screens identified dozens of genetic perturbations that positively and negatively modulate T cell proliferation.
24 hours post stimulation, lentivirus was added directly to cultured T cells at a 1:300 v/v ratio and gently mixed by tilting. Following 24 hours, cells were collected, pelleted, and resuspended in Lonza electroporation buffer P3 (Lonza, Cat #V4XP-3032) at 20e6 cells/100 μl. Next, Cas9 protein (MacroLab, Berkeley, 40 μM stock) was added to cell suspension at 1:10 v/v ratio. Cells were electroporated at 20e6 cells per cuvette using the pulse code EH115 (Lonza, cat #VVPA-1002). The total number of cells for electroporation was scaled as required. Immediately after electroporation, 1 mL of pre-warmed media was added to each cuvette and cuvettes were placed at 37 degrees for 20 minutes. Cells were then transferred to culture vessels in X-Vivo media containing 50 U/ml IL-2 at 1e6 cells/ml in appropriate tissue culture vessels. Cells were expanded every two days, adding fresh media with IL-2 at 50 U/ml and maintaining the cell density at 1e6 cells/ml.
Cultured cells were collected, spun, washed with PBS, and then resuspended at 1-10 million cells/ml in PBS. CFSE (Biolegend, Cat #423801) was prepared per the manufacturer's protocol to make a 5 mM stock solution in DMSO. This stock solution was diluted 1:1000 in PBS for a 5 μM working solution, and then added in a 1:1 v/v ratio to cell suspension. After mixing, cells were incubated for 5 minutes in the dark at room temperature. The stain was then quenched with a volume of media that was at least 5× the stain volume (e.g. 2 ml+10 ml), and incubated for one minute at room temperature in the dark. Cells were then spun down and resuspended in media prior to restimulation.
PBMCs from multiple human healthy human donors were isolated from TRIMA residuals (see methods). TRIMA residuals were purchased from Blood Centers of the Pacific. After CD8 T cells isolation as above (Day 0), cells were rested in X-Vivo media overnight and then stimulated with plate-bound anti-human CD3/CD28 and IL-2 at 50 U/mL the following day (Day 1). 24 hours after stimulation (Day 2), cells were transduced with concentrated lentivirus encoding the pooled sgRNA library (see methods). […] after transduction (Day 3), cells were electroporated with CAS9 protein (methods). […]

On to `CCNC(=O)[C@H]1O[C@@H](n2cnc3c(N)nc(NCCc4ccc(CCC(=O)O)cc4)nc32)[C@H](O)[C@@H]1O` [CGS-21680], for which the “concentration sufficiently suppressive of T cell proliferation” value in data set [1] was found to be 20 µM.
For the compound “TTAGCATCAAGGCATGCCAT (listed as DNA, chemistry not fully specified) [SEQ ID NO: 26, sgRNA targeting RASA2]”, the “LFC (~effect magnitude)” value in data set [2] was found to be 0.7258.
Turning to “TTCCGCAAAATAGAGCCCCA (listed as DNA, chemistry not fully specified) [SEQ ID NO: 6, sgRNA targeting CBLB]”, the “LFC (~effect magnitude)” value in data set [2] is on record as 1.5917.
